Measurements from publication PMC10141580, “Cyclic Dichalcogenides Extend the Reach of Bioreductive Prodrugs to Harness Thiol/Disulfide Oxidoreductases: Applications to seco-Duocarmycins Targeting the Thioredoxin System” (ACS Central Science, 2023).
Read-outs that look alike come from different tables or passages of the source.

System: NCI-60 standardized human tumor cell line panel
Assay: cells
Assay type: cell-based
[1] = cell line A549/ATCC (LC:A549/ATCC), TMI sheet
[2] = cell line BT-549 (BR:BT-549), TMI sheet
[3] = cell line CCRF-CEM (LE:CCRF-CEM), TMI sheet
[4] = cell line COLO 205 (CO:COLO 205), TMI sheet
[5] = cell line EKVX (LC:EKVX), TMI sheet
[6] = cell line HCC-2998 (CO:HCC-2998), TMI sheet
[7] = cell line HCT-15 (CO:HCT-15), TMI sheet
[8] = cell line HCT-116 (CO:HCT-116), TMI sheet
[9] = cell line HL-60(TB) (LE:HL-60(TB)), TMI sheet
[10] = cell line HOP-62 (LC:HOP-62), TMI sheet
[11] = cell line HOP-92 (LC:HOP-92), TMI sheet
[12] = cell line HT29 (CO:HT29), TMI sheet
[13] = cell line K-562 (LE:K-562), TMI sheet
[14] = cell line KM12 (CO:KM12), TMI sheet
[15] = cell line LOX IMVI (ME:LOX IMVI), TMI sheet
[16] = cell line M14 (ME:M14), TMI sheet
[17] = cell line MALME-3M (ME:MALME-3M), TMI sheet
[18] = cell line MCF7 (BR:MCF7), TMI sheet
[19] = cell line MDA-MB-435 (ME:MDA-MB-435), TMI sheet
[20] = cell line MOLT-4 (LE:MOLT-4), TMI sheet
[21] = cell line NCI-H23 (LC:NCI-H23), TMI sheet
[22] = cell line NCI-H226 (LC:NCI-H226), TMI sheet
[23] = cell line RPMI-8226 (LE:RPMI-8226), TMI sheet
[24] = cell line SF-268 (CNS:SF-268), TMI sheet
[25] = cell line SF-295 (CNS:SF-295), TMI sheet
[26] = cell line SF-539 (CNS:SF-539), TMI sheet
[27] = cell line SK-MEL-5 (ME:SK-MEL-5), TMI sheet
[28] = cell line SK-MEL-28 (ME:SK-MEL-28), TMI sheet
[29] = cell line SNB-19 (CNS:SNB-19), TMI sheet
[30] = cell line SR (LE:SR), TMI sheet
[31] = cell line SW-620 (CO:SW-620), TMI sheet
[32] = cell line T-47D (BR:T-47D), TMI sheet
[33] = cell line U251 (CNS:U251), TMI sheet
[34] = cell line UACC-62 (ME:UACC-62), TMI sheet
[35] = cell line UACC-257 (ME:UACC-257), TMI sheet

COc1cc2cc(C(=O)N3C[C@@H](CCl)c4c3cc(OC(=O)N(CCC(=O)N3CCN(C)CC3)[C@H]3CCSSC3)c3ccccc43)[nH]c2c(OC)c1OC [P-SS60-CBI-TMI]
GI50 (U251, read-out: GI50): 0.16 µM | GI50 (UACC-62, read-out: GI50): 0.27 µM | GI50 (UACC-257, read-out: GI50): 0.63 µM | NCI-60 screening: Log(GI50) [1]: -6.82 | NCI-60 screening: Log(RedIndex) [1]: 1.12 | GI50 (cell line A549/ATCC (LC:A549/ATCC), TMI sheet, read-out: NCI-60 screening: Raw GI50): 0.15 µM | NCI-60 screening: Log(GI50) [2]: -6.64 | NCI-60 screening: Log(RedIndex) [2]: 0.84 | GI50 (cell line BT-549 (BR:BT-549), TMI sheet, read-out: NCI-60 screening: Raw GI50): 0.23 µM | NCI-60 screening: Log(GI50) [3]: -6.66 | NCI-60 screening: Log(RedIndex) [3]: 0.66 | GI50 (cell line CCRF-CEM (LE:CCRF-CEM), TMI sheet, read-out: NCI-60 screening: Raw GI50): 0.22 µM | NCI-60 screening: Log(GI50) [4]: -6.47 | NCI-60 screening: Log(RedIndex) [4]: 0.6 | NCI-60 screening: Log(GI50) [5]: -6.5 | NCI-60 screening: Log(RedIndex) [5]: 0.79 | NCI-60 screening: Log(GI50) [6]: -6.8 | NCI-60 screening: Log(RedIndex) [6]: 0.98 | GI50 (cell line HCC-2998 (CO:HCC-2998), TMI sheet, read-out: NCI-60 screening: Raw GI50): 0.16 µM | NCI-60 screening: Log(GI50) [7]: -6.59 | NCI-60 screening: Log(RedIndex) [7]: 0.82 | GI50 (cell line HCT-15 (CO:HCT-15), TMI sheet, read-out: NCI-60 screening: Raw GI50): 0.26 µM | NCI-60 screening: Log(GI50) [8]: -6.8 | NCI-60 screening: Log(RedIndex) [8]: 0.98 | GI50 (cell line HCT-116 (CO:HCT-116), TMI sheet, read-out: NCI-60 screening: Raw GI50): 0.16 µM | NCI-60 screening: Log(GI50) [9]: -6.92 | NCI-60 screening: Log(RedIndex) [9]: 0.8 | NCI-60 screening: Log(GI50) [10]: -6.96 | NCI-60 screening: Log(RedIndex) [10]: 0.73 | NCI-60 screening: Log(GI50) [11]: -6.46 | NCI-60 screening: Log(RedIndex) [11]: 0.86 | NCI-60 screening: Log(GI50) [12]: -6.57 | NCI-60 screening: Log(RedIndex) [12]: 0.75 | GI50 (cell line HT29 (CO:HT29), TMI sheet, read-out: NCI-60 screening: Raw GI50): 0.27 µM | NCI-60 screening: Log(GI50) [13]: -6.79 | NCI-60 screening: Log(RedIndex) [13]: 0.62 | GI50 (cell line K-562 (LE:K-562), TMI sheet, read-out: NCI-60 screening: Raw GI50): 0.16 µM | NCI-60 screening: Log(GI50) [14]: -6.57 | NCI-60 screening: Log(RedIndex) [14]: 0.89 | GI50 (cell line KM12 (CO:KM12), TMI sheet, read-out: NCI-60 screening: Raw GI50): 0.27 µM | NCI-60 screening: Log(GI50) [15]: -6.68 | NCI-60 screening: Log(RedIndex) [15]: 0.72 | GI50 (cell line LOX IMVI (ME:LOX IMVI), TMI sheet, read-out: NCI-60 screening: Raw GI50): 0.21 µM | NCI-60 screening: Log(GI50) [16]: -6.72 | NCI-60 screening: Log(RedIndex) [16]: 0.9 | GI50 (cell line M14 (ME:M14), TMI sheet, read-out: NCI-60 screening: Raw GI50): 0.19 µM | NCI-60 screening: Log(GI50) [17]: -6.55 | NCI-60 screening: Log(RedIndex) [17]: 0.75 | NCI-60 screening: Log(GI50) [18]: -7.45 | NCI-60 screening: Log(RedIndex) [18]: 0.95 | NCI-60 screening: Log(GI50) [19]: -6.67 | NCI-60 screening: Log(RedIndex) [19]: 0.92 | GI50 (cell line MDA-MB-435 (ME:MDA-MB-435), TMI sheet, read-out: NCI-60 screening: Raw GI50): 0.21 µM | NCI-60 screening: Log(GI50) [20]: -7.05 | NCI-60 screening: Log(RedIndex) [20]: 0.82 | NCI-60 screening: Log(GI50) [21]: -7.26 | NCI-60 screening: Log(RedIndex) [21]: 0.93 | NCI-60 screening: Log(GI50) [22]: -6.36 | NCI-60 screening: Log(RedIndex) [22]: 0.52 | NCI-60 screening: Log(GI50) [23]: -6.65 | NCI-60 screening: Log(RedIndex) [23]: 0.82 | GI50 (cell line RPMI-8226 (LE:RPMI-8226), TMI sheet, read-out: NCI-60 screening: Raw GI50): 0.22 µM | NCI-60 screening: Log(GI50) [24]: -6.73 | NCI-60 screening: Log(RedIndex) [24]: 0.92 | GI50 (cell line SF-268 (CNS:SF-268), TMI sheet, read-out: NCI-60 screening: Raw GI50): 0.19 µM | NCI-60 screening: Log(GI50) [25]: -6.84 | NCI-60 screening: Log(RedIndex) [25]: 1.03 | NCI-60 screening: Log(GI50) [26]: -6.78 | NCI-60 screening: Log(RedIndex) [26]: 0.89 | GI50 (cell line SF-539 (CNS:SF-539), TMI sheet, read-out: NCI-60 screening: Raw GI50): 0.17 µM | NCI-60 screening: Log(GI50) [27]: -6.78 | NCI-60 screening: Log(RedIndex) [27]: 0.99 | GI50 (cell line SK-MEL-5 (ME:SK-MEL-5), TMI sheet, read-out: NCI-60 screening: Raw GI50): 0.17 µM | NCI-60 screening: Log(GI50) [28]: -6.53 | NCI-60 screening: Log(RedIndex) [28]: 1.09 | GI50 (cell line SK-MEL-28 (ME:SK-MEL-28), TMI sheet, read-out: NCI-60 screening: Raw GI50): 0.29 µM | NCI-60 screening: Log(GI50) [29]: -6.6 | NCI-60 screening: Log(RedIndex) [29]: 0.94 | GI50 (cell line SNB-19 (CNS:SNB-19), TMI sheet, read-out: NCI-60 screening: Raw GI50): 0.25 µM | NCI-60 screening: Log(GI50) [30]: -7.47 | NCI-60 screening: Log(RedIndex) [30]: 0.91 | NCI-60 screening: Log(GI50) [31]: -6.66 | NCI-60 screening: Log(RedIndex) [31]: 0.93 | GI50 (cell line SW-620 (CO:SW-620), TMI sheet, read-out: NCI-60 screening: Raw GI50): 0.22 µM | NCI-60 screening: Log(GI50) [32]: -6.16 | NCI-60 screening: Log(RedIndex) [32]: 0.44 | NCI-60 screening: Log(GI50) [33]: -6.79 | NCI-60 screening: Log(RedIndex) [33]: 0.96 | GI50 (cell line U251 (CNS:U251), TMI sheet, read-out: NCI-60 screening: Raw GI50): 0.16 µM | NCI-60 screening: Log(GI50) [34]: -6.57 | NCI-60 screening: Log(RedIndex) [34]: 0.75 | GI50 (cell line UACC-62 (ME:UACC-62), TMI sheet, read-out: NCI-60 screening: Raw GI50): 0.27 µM | NCI-60 screening: Log(GI50) [35]: -6.2 | NCI-60 screening: Log(RedIndex) [35]: 0.5 | GI50 (read-out: NCI-60 screening: Raw GI50): 0.23 µM
